Laboratory results from US9880171B2, “iASPP phosphorylation and metastatic potential” (LUDWIG INSTITUTE FOR CANCER RESEARCH LTD., priority 2012, dated 2018).

Columns and labels:
Type in all cases: cell-based, human
[1] = system: slow-migrating iASPP in H1299 cells; experiment: induction of slow-migrating iASPP by chemotherapeutic agents in H1299 cells (WB); settings: H1299, overnight treatment (oxidative stress inducers 1-3 h; EDTA 4 mM 1 hour), antibody LX49.3
Protocol: FIG. 3. […] H1299 cells were treated overnight with the indicated concentrations of mitosis-arrest drugs nocodazole, colchicine and taxol, DNA damaging drugs, or oxidative stress inducers (1-3 h). Total lysate was prepared in UREA buffer, and iASPP expression patterns were determined using antibody LX49.3. […] Mitotic-arrest drugs were applied to H1299 cells to induce iASPP mobility shift. Floating and adherent cells were collected, and iASPP expression pattern was determined by western blotting (WB). C. […] Left panel, cells in mitosis (floating) and interphase (adherent) were collected by mitotic shake-off, and iASPP expression pattern was determined by WB. Right panel, H1299 cells after Taxol treatment, or mitotic shake-off were immunofluorescence stained using antibody LX49.3. In mitotic shake-off experiment, mitotic shake-off cells were cytospun to slides; the remaining adherent cells after shaking were scraped off and used as interphase control. […] Melanoma cells were treated with nocodazole overnight and iASPP expression patterns from total cell lysate was determined by WB.
FIG. 4. A. Floating and adherent H1299 cells separately collected by mitotic shake-off (FIG. 3C) were stained with propidium iodide (PI), followed by FACS analysis. […] B. H1299 cells were subjected to treatment of 10 μM nocodazole for 24 hours (Nocodazole), on ice for 30 minutes (Cold shock), or 4 mM EDTA for 1 hour (EDTA). Left panel: iASPP expression pattern was analysed by immunoblotting. Right panel: phase contrast images were taken before collection of the cells for WB analysis. Bar=20 μm.
(§1) For WB, cells were lysed in buffer containing 8 M urea, 1 M thiourea, 0.5% CHAPS, 50 mM DTT, and 24 mM spermine. A total of 40 μg of protein extract was loaded per lane into SDS-polyacrylamide gels. Gels were transferred onto nitrocellulose membrane (Protran) and the resulting blots incubated first with primary antibody overnight at 4° C. and then with the appropriate secondary horseradish peroxidize-conjugated antibody (Dako). The results were visualized by enhanced chemiluminescent detection (Amersham Biosciences) using X-ray film (Fujifilm). For cell lysate immunoprecipitation, cells were dissolved in NP40 buffer (50 mM Tris-HCl pH 8.0, 150 mM NaCl, 1% NP-40) with protease inhibitor cocktail mix (Roche Diagnostics). Cells were further thoroughly broken by ultrasonication, followed by spinning for 1 hour. Achieved suspension was adjusted to 1-2 mg/ml using NP40 buffer and incubated with 20 μl nickel beads, glutathione beads, or protein A beads (with 2 μg required antibody) for 2 h at room temperature. The beads were washed for four times with NP40 buffer, boiled for 5 min in Laemmli sample buffer, and applied for Western blotting. For pure protein immunoprecipitation, 5-10 μg purified proteins were mixed in NP40 buffer with 1 mg/ml BSA for 2 h at room temperature.
As mitotic cells often detach from the tissue culture dish, floating cells were separated from adherent cells after the treatment of Nocodozole, Taxol and Colchicine.

[2] = system: iASPP modification and p53-iASPP binding in WM278 cells; experiment: iASPP modification and p53 co-immunoprecipitation in WM278 cells; settings: 0.4 μM JNJ or 10 μM nocodazole overnight
Protocol: as §1

[3] = system: slow-migrating iASPP in melanoma cell lines; experiment: induction of slow-migrating iASPP in melanoma cell lines (WB); settings: panel of melanoma cell lines, nocodazole overnight
Protocol: FIG. 3. Mitotic arrests induces slow-migrating nuclear iASPP. A. Mitosis-arresting (i.e., apoptosis-inducing) chemotherapeutic drugs induce slow-migrating iASPP. H1299 cells were treated overnight with the indicated concentrations of mitosis-arrest drugs nocodazole, colchicine and taxol, DNA damaging drugs, or oxidative stress inducers (1-3 h). Total lysate was prepared in UREA buffer, and iASPP expression patterns were determined using antibody LX49.3. B. Slow-migrating iASPP exclusively exists in mitotic cells after drug induction. Mitotic-arrest drugs were applied to H1299 cells to induce iASPP mobility shift. Floating and adherent cells were collected, and iASPP expression pattern was determined by western blotting (WB). C. Slow-migrating iASPP exists in natural mitotic cells and localized in nucleus (as determining by staining with the nuclear specific marker Topro). Left panel, cells in mitosis (floating) and interphase (adherent) were collected by mitotic shake-off, and iASPP expression pattern was determined by WB. Right panel, H1299 cells after Taxol treatment, or mitotic shake-off were immunofluorescence stained using antibody LX49.3. […] Melanoma cells were treated with nocodazole overnight and iASPP expression patterns from total cell lysate was determined by WB. […]

COC(=O)Nc1nc2ccc(C(=O)c3cccs3)cc2[nH]1 [Nocodazole]
induction of slow-migrating iASPP isoform [1]: induced | amount of modified iASPP [2]: induced iASPP modification | induction of slow-migrating iASPP isoform [3]: induced the conversion of faster migrating iASPP into the slower migrating iASPP isoform
